# Measurements as given in patent publication US10150766B2, “P2X7 modulators” (Jansssen Pharmaceutica NV, priority 2014, dated 2018).
# Where two headings read alike, the source gives them in different places.
# Legend:
# rat P2X7 = rat P2X7 (Rattus norvegicus (Rat), UniProt Q64663); test: P2X7 antagonism in recombinant rat P2X7 cells (column headed P2X7 Rat IC50); type: binding
# Description: The in vitro affinity of the compounds of the invention for the rat and human P2X7 receptor was determined using a human peripheral blood mononuclear cells (PBMCs), a human whole blood assay, a Ca^2+ flux and radioligand binding assay in recombinant human P2X7 cells and recombinant rat P2X7 cells. […] The data represented in Tables 2 may represent a value from a single determination or when the experiment was run more than once, the data represents the average from between 2-12 runs.
# P2X7 Antagonism in Recombinant Human P2X7 Cells or Recombinant Rat P2X7 Cells: […]
# P2X7 [1] = biological target: T1, P2X7 (Homo sapiens (Human), UniProt Q99572); test: P2X7 antagonism in human peripheral blood mononuclear cells (PBMCs), IL-1β release (LPS + Bz-ATP, ELISA); type: cell-based; conditions: P2X7, 10 μM test compound, LPS 30 ng/ml + Bz-ATP 0.5 mM, read-out: PBMC @10 μM (% control)
# Description: (§1) P2X7 Antagonism in Human Peripheral Blood Mononuclear Cells (PBMCs) and Human Whole Blood.
# (§2) Human blood was collected using a blood donor program. PBMCs were isolated from blood using a Ficoll density gradient technique. Briefly, blood was laid on Ficoll solution and centrifuged at ROOM TEMPERATURE for 20 minutes at 2000 rpm. The buffy layer (between red blood cells and plasma) was carefully collected by aspiration, washed with PBS and centrifuged again at 1500 rpm for 15 minutes. The resulting cell pellet was washed and plated on 96 well-plates for experiments. For the Human Whole Blood experiments, 150 μl of human blood was plated on 96 well-plates. Lipopolysaccharide (LPS) (30 ng/ml) was added to each well and incubated for 1 hour. Test compounds were then added and incubated for 30 minutes. The P2X7 agonist, 2′(3′)-O-(4-benzoylbenzoyl) adenosine 5′-triphosphate (Bz-ATP) was then added at a final concentration of 0.5 mM (PBMC) or 1 mM (blood). Cells were incubated for an additional 1.5 hours. At that point, supernatant was collected and stored for IL-1β assay using manufacturer's protocol for enzyme-linked immunosorbant assay (ELISA). Data was expressed as percent control, where control is defined as the difference in IL-1β release in LPS+Bz-ATP samples and LPS only samples. Data was plotted as response (% control) versus concentration to generate IC50 values. […] Data are analyzed and graphed on Graphpad Prism 5. For analysis, each concentration point is averaged from triplicate values and the averaged values are plotted on Graphpad Prism. The IC50 for each compound is then uploaded into 3DX.
# P2X7 [2] = biological target: T1, P2X7; test: Radioligand binding ([3H]A-804598) to membranes of human P2X7-1321N1 cells; conditions: human P2X7-1321N1 membranes, tracer tritiated A-804598, 1 hour at 4° C.
# Description: P2X7 Antagonism in Recombinant Human P2X7 Cells or Recombinant Rat P2X7 Cells:
# human or rat P2X7-1321N1 cells were collected and frozen @ −80° C. On the day of the experiment, cell membrane preparations were made according to standard published methods. […] The compound can be prepared as described in the literature. […] The assay was terminated by filtration (GF/B filters pre-soaked with 0.3% PEI) and washed with washing buffer (Tris-HCl 50 mM). The IC50 generated in the binding assay was corrected for tracer concentration and affinity of the tracer to derive at the affinity (Ki) of the test compounds. The data are presented in Table 2 under the headings: P2X7 human Ki (μM) and P2X7 rat Ki (μM). Data are analyzed and graphed on Graphpad Prism 5. For analysis, each concentration point is averaged from triplicate values and the averaged values are plotted on Graphpad Prism.
# P2X7 [3] = biological target: T1, P2X7; test: P2X7 antagonism in human whole blood, IL-1β release (LPS + Bz-ATP, ELISA); type: cell-based; conditions: LPS 30 ng/ml + Bz-ATP 1 mM
# Description: as §1, §2
# [4] = read-out: Human Whole Blood IC50
# rat P2X7, sequence (Q64663 whole entry): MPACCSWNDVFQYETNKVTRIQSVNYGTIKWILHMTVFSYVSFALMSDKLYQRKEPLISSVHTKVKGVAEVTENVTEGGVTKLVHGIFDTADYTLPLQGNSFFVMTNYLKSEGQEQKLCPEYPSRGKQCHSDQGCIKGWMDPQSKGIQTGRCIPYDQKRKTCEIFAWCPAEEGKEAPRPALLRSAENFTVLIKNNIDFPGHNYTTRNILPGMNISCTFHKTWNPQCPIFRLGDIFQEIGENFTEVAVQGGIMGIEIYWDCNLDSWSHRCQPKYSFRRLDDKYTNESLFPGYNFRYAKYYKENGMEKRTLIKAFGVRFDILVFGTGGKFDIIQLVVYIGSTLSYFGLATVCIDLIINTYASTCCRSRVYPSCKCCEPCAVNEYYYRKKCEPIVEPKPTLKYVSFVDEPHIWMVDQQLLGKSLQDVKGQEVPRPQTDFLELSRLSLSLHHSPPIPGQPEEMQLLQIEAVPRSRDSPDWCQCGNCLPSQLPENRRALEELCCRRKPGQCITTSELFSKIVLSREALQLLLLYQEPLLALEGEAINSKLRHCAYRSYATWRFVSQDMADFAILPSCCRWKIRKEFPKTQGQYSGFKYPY
# T1 sequence (Q99572 whole entry): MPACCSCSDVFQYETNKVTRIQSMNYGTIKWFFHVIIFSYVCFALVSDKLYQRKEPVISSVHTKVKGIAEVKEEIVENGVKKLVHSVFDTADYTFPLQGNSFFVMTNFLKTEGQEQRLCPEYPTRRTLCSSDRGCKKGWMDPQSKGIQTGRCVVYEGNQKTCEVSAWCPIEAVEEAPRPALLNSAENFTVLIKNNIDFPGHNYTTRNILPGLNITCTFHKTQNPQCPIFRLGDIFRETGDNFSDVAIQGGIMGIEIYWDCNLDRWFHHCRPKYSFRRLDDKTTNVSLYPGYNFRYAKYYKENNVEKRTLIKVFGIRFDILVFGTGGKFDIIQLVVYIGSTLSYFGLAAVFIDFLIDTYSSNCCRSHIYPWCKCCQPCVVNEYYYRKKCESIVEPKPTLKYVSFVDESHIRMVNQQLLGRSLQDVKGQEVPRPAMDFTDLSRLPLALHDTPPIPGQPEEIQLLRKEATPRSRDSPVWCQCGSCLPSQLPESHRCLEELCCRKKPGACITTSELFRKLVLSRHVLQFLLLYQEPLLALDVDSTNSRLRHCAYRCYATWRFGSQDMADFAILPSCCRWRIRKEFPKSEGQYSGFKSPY
SMILES,IC50 (rat P2X7) [nM],remaining activity at 10 µM (P2X7 [1]) [%],Ki (P2X7 [2]) [nM],IC50 (P2X7 [3]; [4]) [µM],IC50 (P2X7 [3]; Human Whole Blood IC50 (μM)) [µM]
"Cc1nc(-c2ccn[nH]2)c2c(n1)[C@H]1CCC[C@@H](C2)N1C(=O)c1ccc(Cl)cc1F [Example 28, (4-chloro-2-fluorophenyl)((6S,10R)-2-methyl-4-(1H-pyrazol-5-yl)-5,6,7,8,9,10-hexahydro-6,10-epiminocycloocta[d]pyrimidin-11-yl)methanone]",7940,-25.1,126,0.423,
"Cc1nc(-c2ncccn2)c2c(n1)[C@H]1CCC[C@@H](C2)N1C(=O)c1cccc(Cl)c1Cl [Example 45, (2,3-dichlorophenyl)((6S,10R)-2-methyl-4-(pyrimidin-2-yl)-5,6,7,8,9,10-hexahydro-6,10-epiminocycloocta[d]pyrimidin-11-yl)methanone]",128,-14.2,25.1,,0.064
"Cc1nc(-c2ccnn2C)c2c(n1)[C@H]1CCC[C@@H](C2)N1C(=O)c1ccc(Cl)c(F)c1Cl [Example 58, (2,4-dichloro-3-fluorophenyl)((6S,10R)-2-methyl-4-(1-methyl-1H-pyrazol-5-yl)-5,6,7,8,9,10-hexahydro-6,10-epiminocycloocta[d]pyrimidin-11-yl)methanone]",805,-3.3,93.3,0.13,
"Cc1nc(-c2ccn[nH]2)c2c(n1)[C@H]1CCC[C@@H](C2)N1C(=O)c1ccc(F)cc1Cl [Example 22, (2-chloro-4-fluorophenyl)((6S,10R)-2-methyl-4-(1H-pyrazol-5-yl)-5,6,7,8,9,10-hexahydro-6,10-epiminocycloocta[d]pyrimidin-11-yl)methanone]",> 10000,26.8,316,0.286,
"Cc1nc(-c2cnccn2)c2c(n1)[C@H]1CCC[C@@H](C2)N1C(=O)c1cccc(C(F)(F)F)c1C [Example 50, (2-methyl-3-(trifluoromethyl)phenyl)((6S,10R)-2-methyl-4-(pyrazin-2-yl)-5,6,7,8,9,10-hexahydro-6,10-epiminocycloocta[d]pyrimidin-11-yl)methanone]",67.8,-2.2,93.3,0.158,
"Cc1nc(-c2ccn[nH]2)c2c(n1)[C@H]1CCC[C@@H](C2)N1C(=O)c1ccc(F)c(Cl)c1Cl [Example 25, (2,3-dichloro-4-fluorophenyl)((6S,10R)-2-methyl-4-(1H-pyrazol-5-yl)-5,6,7,8,9,10-hexahydro-6,10-epiminocycloocta[d]pyrimidin-11-yl)methanone]",18.7,-10.2,20,,0.025
"Cc1nc(-c2ncccn2)c2c(n1)[C@H]1CCC[C@@H](C2)N1C(=O)c1ccc(Cl)c(F)c1Cl [Example 44, (2,4-dichloro-3-fluorophenyl)((6S,10R)-2-methyl-4-(pyrimidin-2-yl)-5,6,7,8,9,10-hexahydro-6,10-epiminocycloocta[d]pyrimidin-11-yl)methanone]",251,-11.6,50.1,0.156,
"Cc1nc(-c2ccc(F)cc2)c2c(n1)[C@H]1CCC[C@@H](C2)N1C(=O)c1cccc(Cl)c1Cl [Example 55, (2,3-dichlorophenyl)((6S,10R)-4-(4-fluorophenyl)-2-methyl-5,6,7,8,9,10-hexahydro-6,10-epiminocycloocta[d]pyrimidin-11-yl)methanone]",217,-1.6,105,,0.037
"Cc1nc(-c2ccnn2C)c2c(n1)[C@H]1CCC[C@@H](C2)N1C(=O)c1cccc(C(F)(F)F)c1Cl [Example 56, (2-chloro-3-(trifluoromethyl)phenyl)((6S,10R)-2-methyl-4-(1-methyl-1H-pyrazol-5-yl)-5,6,7,8,9,10-hexahydro-6,10-epiminocycloocta[d]pyrimidin-11-yl)methanone]",11.6,-2.9,100,,0.048
"Cc1nc(-c2ncccn2)c2c(n1)[C@H]1CCC[C@@H](C2)N1C(=O)c1ccnc(C(F)(F)F)c1Cl [Example 42, (3-chloro-2-(trifluoromethyl)pyridin-4-yl)((6S,10R)-2-methyl-4-(pyrimidin-2-yl)-5,6,7,8,9,10-hexahydro-6,10-epiminocycloocta[d]pyrimidin-11-yl)methanone]",157,-16.1,126,0.107,
"Cc1nc(-c2ccn[nH]2)c2c(n1)[C@@H]1CCC[C@H](C2)N1C(=O)c1cccc(Cl)c1Cl [Example 11, (2,3-dichlorophenyl)((6R,10S)-2-methyl-4-(1H-pyrazol-5-yl)-5,6,7,8,9,10-hexahydro-6,10-epiminocycloocta[d]pyrimidin-11-yl)methanone]",944,24.4,501,,0.302
"Cc1nc(-c2ccn[nH]2)c2c(n1)[C@H]1CCC[C@@H](C2)N1C(=O)c1cccc(C(F)(F)F)c1C [Example 21, (2-methyl-3-(trifluoromethyl)phenyl)((6S,10R)-2-methyl-4-(1H-pyrazol-5-yl)-5,6,7,8,9,10-hexahydro-6,10-epiminocycloocta[d]pyrimidin-11-yl)methanone]",33.2,-26.4,31.6,,0.026
"Cc1nc(-c2cnccn2)c2c(n1)[C@H]1CCC[C@@H](C2)N1C(=O)c1cccc(C(F)(F)F)c1Cl [Example 46, (2-chloro-3-(trifluoromethyl)phenyl)((6S,10R)-2-methyl-4-(pyrazin-2-yl)-5,6,7,8,9,10-hexahydro-6,10-epiminocycloocta[d]pyrimidin-11-yl)methanone]",14.1,-4.2,31.6,,0.088
"Cc1nc(-c2ccnn2C)c2c(n1)[C@H]1CCC[C@@H](C2)N1C(=O)c1cccc(Cl)c1Cl [Example 59, (2,3-dichlorophenyl)((6S,10R)-2-methyl-4-(1-methyl-1H-pyrazol-5-yl)-5,6,7,8,9,10-hexahydro-6,10-epiminocycloocta[d]pyrimidin-11-yl)methanone]",1090,-1.8,135,0.372,
"Cc1nc(-c2ccc(F)cc2)c2c(n1)[C@H]1CCC[C@@H](C2)N1C(=O)c1cccc(C(F)(F)F)c1C [Example 53, ((6S,10R)-4-(4-fluorophenyl)-2-methyl-5,6,7,8,9,10-hexahydro-6,10-epiminocycloocta[d]pyrimidin-11-yl)(2-methyl-3-(trifluoromethyl)phenyl)methanone]",191,0,31.6,0.131,
"Cc1nc(-c2ccnn2C)c2c(n1)[C@H]1CCC[C@@H](C2)N1C(=O)c1cccc(C(F)(F)F)c1C [Example 57, (2-methyl-3-(trifluoromethyl)phenyl)((6S,10R)-2-methyl-4-(1-methyl-1H-pyrazol-5-yl)-5,6,7,8,9,10-hexahydro-6,10-epiminocycloocta[d]pyrimidin-11-yl)methanone]",597,-0.3,190,0.191,
"Cc1nc(-c2ccn[nH]2)c2c(n1)[C@H]1CCC[C@@H](C2)N1C(=O)c1ccnc(C(F)(F)F)c1Cl [Example 24, (3-chloro-2-(trifluoromethyl)pyridin-4-yl)((6S,10R)-2-methyl-4-(1H-pyrazol-5-yl)-5,6,7,8,9,10-hexahydro-6,10-epiminocycloocta[d]pyrimidin-11-yl)methanone]",19.2,2.4,126,,0.038
